The source of these data is patent US20230416245A1, “ADENOSINE ANALOGS FOR THE TREATMENT OF DISEASE” (BIOINTERVENE, INC., priority 2020, published 2023).

For assay [1], the target named is T1, human adenosine A3 receptor (Homo sapiens (Human), UniProt P0DMS8). Nature of the assay: Adenosine receptor binding assay ([125I]-AB-MECA competition). The note with it: inhibition of 0.15 nM [125I]-AB-MECA binding, membranes of cells expressing human A3 receptor; read-out: hA3 Ki: Ki. The source says:
Example 30: Adenosine Receptor Binding Assay
Materials and Reference Compounds: [^125I]-AB-MECA and [^3H]CCPA are both obtained from Amersham Biosciences (Little Chalfont, UK). IB-MECA are obtained from Tocris (Bristol, UK) and N6-cyclopentyl adenosine (CPA) is obtained from Sigma-Alrich (Poole, UK). Cell culture media, G418 and hygromycin are obtained from Invitrogen (Paisley, UK). Fetal calf serum is obtained from Perbio Science (Cheshire, UK). All other reagents are obtained from Fisher Chemicals (Loughborough, UK).
The method followed is that of Yates L, Clark J H, Martin T J, James S, Broadley K J, Kidd E J. Radioligand binding and functional responses of ligands for human recombinant adenosine A3 receptors. Auton Autacoid Pharmacol. 2006; 26(2):191-200. Cells stably transfected with the human adenosine A3 or A1 receptor are grown in Dulbecco's modified Eagles medium with nutrient mixture F12 containing NaHCO3 and Glutamax. Media is supplemented with 10% fetal calf serum, geneticin (G418; 0.67 mg/mL), hygromycin (500 μg/mL) and adenosine deaminase (1 U/mL). Cells are maintained at 37° C. with 5% CO2 in air. Cells are harvested and homogenized in ice-cold Tris buffer [50 mM Tris, 150 mM NaCl, 1 mM ethylenediaminetetraacetic acid (EDTA), pH 7.4] supplemented with the peptidase inhibitors, 4-(2-aminoethyl)benzenesulfonylfluoride (1 mM) and bacitracin (0.1 mg/mL), using a Polytron homogenizer (3×10 s bursts). The homogenate was spun for 10 min (4° C.) at 500 g. The supernatant is retained and the pellet is re-suspended in the buffer, homogenized and spun as above. The combined supernatants are centrifuged for 15 min (4° C.) at 48,000 g. The resultant pellet is re-suspended in the buffer and centrifuged for a second time at 48,000 g. The membrane pellet is then suspended in Tris buffer containing no peptidase inhibitors or adenosine deaminase and stored at −80° C. at a protein concentration of 1 mg/mL.
Binding Assays: Radioligand-binding assays were performed using the adenosine A3 receptor agonist [^125I]-AB-MECA and the A1 receptor agonist [^3H]CCPA. Binding assays were conducted in a total volume of 100 μL containing a 50 mM Tris, pH 7.4 buffer with or without 10 mM MgCl2, 20 μg membranes and either 0.15 nM [^125I]-AB-MECA (for the A3 receptor) or 1 nM [^3H]CCPA (for the A1 receptor). Assays were conducted at room temperature for 60 min (A1 receptor) or 120 min (A3 receptor) and terminated by the addition of 2 ml of ice-cold wash buffer (50 mM Tris, pH 7.4 with or without 10 mM MgCl2) and rapid filtration over 0.03% polyethylenimine-treated Whatman GF/C filters using a Brandel cell harvester (Semat International Ltd., St Albans, UK). Filters were then washed three times with 2 ml of ice-cold buffer. The filter-bound radioactivity were counted using a Compugamma counter (LKB Wallac, Turku, Finland). Competition experiments were performed to investigate the ability of reference compounds and embodiments of the invention to inhibit [^125I]-AB-MECA binding. Non-specific binding were determined using the respective compound at its highest concentration.
Data Analysis: The Kd and Bmax values for binding data were calculated based upon the molar amounts of bound and free [^125I]-AB-MECA. […] IC50 and Ki values and Hill slopes for inhibition of the radioligand binding by the compounds of the invention were calculated from the ligand competition curves using the Excel spreadsheet and the Kd value calculated for either [^125I]-AB-MECA or [^3H]CCPA. The results were expressed as a percent of control specific binding and as a percent inhibition of control specific binding obtained in the presence of the compounds of the invention. The IC50 values (concentration causing a half-maximal inhibition of control specific binding) and Hill coefficients (nH) were determined by non-linear regression analysis of the competition curves generated with mean replicate values using Hill equation curve fitting: […]

Assay [2] deals with T1, human adenosine A3 receptor. Briefly: Intracellular cAMP levels (inhibition of forskolin-stimulated cAMP production). The note with it: for EC50: CHO cells expressing human adenosine A3 receptors, forskolin 10 μM; for CAMP Efficacy (%): maximal response as percentage of the response produced by 100 nM IB-MECA. The assay is classed as cell-based. The text has this:
Example 31: Intracellular cAMP Levels
The method followed is that published in Yates L, Clark J H, Martin T J, James S, Broadley K J, Kidd E J. Radioligand binding and functional responses of ligands for human recombinant adenosine A3 receptors. Auton Autacoid Pharmacol. 2006 April; 26(2):191-200.
Materials and Cell Culture: Adenosine deaminase was obtained from Roche (Lewes, UK). Forskolin was obtained from Sigma-Aldrich (Poole, UK). The sources of other materials are provided above in Example 1. CHO-K1 cells stably transfected with the human adenosine A3 receptor were grown in Dulbecco's modified Eagles medium with nutrient mixture F12 containing NaHCO3 and Glutamax. Media was supplemented with 10% fetal calf serum, geneticin (G418; 0.67 mg/mL), hygromycin (500 μg/mL) and adenosine deaminase (1 U/mL). Cells were maintained at 37° C. with 5% CO2 in air.
cAMP Measurements: Intracellular cAMP production was measured directly using a non-acetylation cAMP enzyme immunoassay (Amersham Biosciences, Little Chalfont, UK). Cultured CHO cells expressing human adenosine A3 receptors were allowed to plate overnight in 96-well plates in culture medium containing adenosine deaminase. Twenty-four hours later, they were incubated with adenosine analogues or compounds of the invention (0.1 nM-1 μM) for 5 min at 37° C., followed by incubation with forskolin (10 μM) for 10 min. The cells were then lysed with 200 μL of lysis reagent 1 provided with the kit for 10 min to release intracellular cAMP. Aliquots of the supernatants were then transferred to a 96-well microtitre plate coated with donkey anti-rabbit IgG; 100-μL cAMP standards (12.5-3200 fmol/well) were also added to the microtitre plate; 100 μL of rabbit anti-cAMP antibody was added to all wells and incubated at 2-5° C. for 2 h. The antiserum was made up in lysis reagent 2, which sequesters the key component in lysis reagent 1 and ensures that cAMP is free for subsequent analysis. Then 50 μL of cAMP peroxidase conjugate was added to all wells and left to incubate for 60 min at 2-5° C. to allow competition for the antibody between the un-labelled and horse radish peroxidase (HRP)-labelled cAMP. Wells were then washed with buffer and 150 μL of enzyme substrate containing 3,3′,5,5′-tetramethylbenzidine/hydrogen peroxide in 20% (v/v) dimethylformamide was added to each well and left to incubate for 60 min on a Titramax 100 microtitre plate shaker (Heidolph Instruments, Schwabach, Germany) at room temperature for color development. The reaction was stopped by the addition of 100 μL of 1 M sulfuric acid and the optical density (OD) read at 450 nm on a spectrophotometric MRX microplate reader (Dynex Technologies, Chantilly, VA, USA).
Analyses: Each sample/standard was analyzed in duplicate and the resulting OD values averaged. The percent bound (B/Bo) for each standard and sample was calculated using the following relationship: […]
where B is the specific OD for standard/sample and Bo is the specific OD for the zero standard. A standard curve was generated by plotting % B/Bo as a function of the log fmol cAMP standard per well. The fmol per well value for cAMP in each sample was then read from the graph. The results are expressed as a percent of control agonist response: (measured response/control response)*100 in the presence of the compounds of the invention. Concentration-response curves for inhibition of cAMP production were constructed for all compounds of the invention and reference compounds. The EC50 values (concentration producing a half-maximal response) were determined by non-linear regression analysis of the concentration-response curves generated with mean replicate values using Hill equation curve fitting, according to the equation:
where Y=response, A=left asymptote of the curve, D=right asymptote of the curve, C=compound concentration, and C50=EC50, and nH=slope factor. […]
In general terms: Cyclic AMP is a second messenger, typically raised through Gs and lowered through Gi signalling.

T1 sequence (P0DMS8 whole entry): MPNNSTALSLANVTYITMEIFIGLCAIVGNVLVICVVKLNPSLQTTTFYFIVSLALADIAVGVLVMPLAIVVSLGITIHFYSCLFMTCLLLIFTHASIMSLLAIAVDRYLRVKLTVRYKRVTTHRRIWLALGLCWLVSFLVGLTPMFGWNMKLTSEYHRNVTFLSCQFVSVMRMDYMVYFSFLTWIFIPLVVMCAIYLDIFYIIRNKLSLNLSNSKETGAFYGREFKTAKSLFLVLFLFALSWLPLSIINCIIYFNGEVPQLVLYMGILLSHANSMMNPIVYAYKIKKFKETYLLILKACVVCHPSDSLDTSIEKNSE

As for `CCNc1cc(C#N)nc2c1ncn2[C@H]1[C@H](O)[C@H](O)[C@]2(C(=O)NC)C[C@H]12` [Compound 70, (1S,2R,3S,4R,5S)-4-(5-cyano-7-(ethylamino)-3H-imidazo[4,5-b]pyridin-3-yl)-2,3-dihydroxy-N-methylbicyclo[3.1.0]hexane-1-carboxamide], the Ki – broadly, a measure of affinity in units of concentration, obtained from inhibition or displacement – in assay [1] was 0.133 nM. For the same compound, in assay [2], the EC50 (commonly the midpoint of the concentration-response curve) was 0.1 nM and the “CAMP Efficacy (%)” value is 104.76%.
Taken in the same sequence, the figures for `CNC(=O)C12C[C@@H]1[C@@H](n1cnc3c(NCC4CC4)cc(Cl)nc31)[C@H](O)[C@@H]2O` (stereo in doubt) [Compound 63, (1S,2R,3S,4R,5S)-4-(5-chloro-7-((cyclopropylmethyl)amino)-3H-imidazo[4,5-b]pyridin-3-yl)-2,3-dihydroxy-N-methylbicyclo[3.1.0]hexane-1-carboxamide] were 0.72 nM, 0.22 nM and 105.1%.
With `O[C@@H]1[C@H](O)[C@@H]2C[C@@H]2[C@H]1n1cnc2c(NCc3cc(Cl)ccc3Cl)cc(Cl)nc21` [Compound 68, (1R,2R,3S,4R,5S)-4-(5-chloro-7-((2,5-dichlorobenzyl)amino)-3H-imidazo[4,5-b]pyridin-3-yl)bicyclo[3.1.0]hexane-2,3-dio], in assay [1], the Ki was 4.75 nM. In assay [2], it took 1.33 nM to reach a half-maximal effect (EC50) and the “CAMP Efficacy (%)” value is recorded as 38.22%.
Taken in the same sequence, the figures for `CNC(=O)[C@@]12C[C@@H]1[C@@H](n1cnc3c(NCc4cc(Cl)ccc4OCc4cc(C)no4)cc(Cl)nc31)[C@H](O)[C@@H]2O` [Compound 62, (1S,2R,3S,4R,5S)-4-(5-chloro-7-((5-chloro-2-((3-methylisoxazol-5-yl)methoxy)benzyl)amino)-3H-imidazo[4,5-b]pyridin-3-yl)-2,3-dihydroxy-N-methylbicyclo[3.1.0]hexane-1-carboxamide] were 0.33 nM, 0.31 nM and 103.26%.
Taken in the same sequence, the figures for `CCNc1c(C#N)c(Cl)nc2c1ncn2[C@H]1[C@H](O)[C@H](O)[C@@H]2C[C@@H]21` [Compound 93, 5-chloro-3-((1S,2R,3S,4R,5R)-3,4-dihydroxybicyclo[3.1.0]hexan-2-yl)-7-(ethylamino)-3H-imidazo[4,5-b]pyridine-6-carbonitrile] were 2.59 nM, 15.2 nM and 52%.
